Legend:
[1] = BuOH/H2O distribution coefficient; format: physicochemical; settings: butanol/water
[2] = Osmolality of the solution at 200 mg (I + Gd)/ml; format: physicochemical; settings: prior-art compounds as Na-salt
Mouse = assay: LD50 (Mouse), acute toxicity; format: in vivo

Structure (SMILES) | BuOH/H2O Distribution Coefficient [1] | Osmolality 200 mg (I + Gd)/ml [2] | LD50 (Mouse) (Mouse)
O=C([O-])CN1CCN(CC(=O)[O-])CCN(CC(=O)NCCNC(=O)c2c(I)c(NC(=O)CN3CCN(CC(=O)[O-])CCN(CC(=O)[O-])CCN(CC(=O)[O-])CC3)c(I)c(C(=O)NCCNC(=O)CN3CCN(CC(=O)[O-])CCN(CC(=O)[O-])CCN(CC(=O)[O-])CC3)c2I)CCN(CC(=O)[O-])CC1.[Gd+3].[Gd+3].[Gd+3] [Example 7, 2,4,6-Triiodo-5-({10-[1,4,7-tris-(carboxymethyl)-1,4,7,10-tetraazacyclododecanyl]}acetyl, Gd-complex)aminoisophthalic acid-N,N-bis-(3-aza-4-oxopentane-1,5-diyl-{10-[1,4,7-tris-(carboxymethyl)-1,4,7,10-tetraazacyclododecanyl, Gd-complex]})amide] | 0.00005 | 334 mosmol/l | >12.0 g(I + Gd)/ g(I + Gd)/kg
CC(C(=O)NCCNC(=O)c1c(I)c(C(=O)NCCNC(=O)C(C)N2CCN(CC(=O)[O-])CCN(CC(=O)[O-])CCN(CC(=O)[O-])CC2)c(I)c(N(C)C(=O)C(C)N2CCN(CC(=O)[O-])CCN(CC(=O)[O-])CCN(CC(=O)[O-])CC2)c1I)N1CCN(CC(=O)[O-])CCN(CC(=O)[O-])CCN(CC(=O)[O-])CC1.[Gd+3].[Gd+3].[Gd+3] (stereo not drawn) [Example 1, 2,4,6-Triiodo-5-(2-{10-[1,4,7-tris-(carboxymethyl)-1,4,7,10-tetraazacyclododecanyl]}propionyl, Gd-complex)methylaminoisophthalic acid-N,N-bis-(3-aza-5-methyl-4-oxopentane-1,5-diyl-{10-[1,4,7-tris-(carboxymethyl)-1,4,7,10-tetraazacyclododecanyl,Gd-complex]})amide] | 0.00005 | 358 mosmol/l | >12.0 g(I + Gd)/ g(I + Gd)/kg
CC(C(=O)NCC(=O)NCCNC(=O)c1c(I)c(C(=O)NCCNC(=O)CNC(=O)C(C)N2CCN(CC(=O)[O-])CCN(CC(=O)[O-])CCN(CC(=O)[O-])CC2)c(I)c(N(C)C(=O)C(C)N2CCN(CC(=O)[O-])CCN(CC(=O)[O-])CCN(CC(=O)[O-])CC2)c1I)N1CCN(CC(=O)[O-])CCN(CC(=O)[O-])CCN(CC(=O)[O-])CC1.[Gd+3].[Gd+3].[Gd+3] (mixture of isomers) [Example 8, 2,4,6-Triiodo-5-(2-{10-[1,4,7-tris-(carboxymethyl)-1,4,7,10-tetraazacyclododecanyl]}propionyl, Gd-complex)methylaminoisophthalic acid-N,N-bis-(3,6-diaza-4,7-dioxo-8-methyloctane-1,5-diyl-{10-[1,4,7-tris-(carboxymethyl)-1,4,7,10-tetraazacyclododecanyl, Gd-complex]})amide] | 0.00005 | 346 mosmol/l | >12.0 g(I + Gd)/ g(I + Gd)/kg
CN(C(=O)CN1CCN(CC(=O)[O-])CCN(CC(=O)[O-])CCN(CC(=O)[O-])CC1)c1c(I)c(C(=O)NCCNC(=O)CN2CCN(CC(=O)[O-])CCN(CC(=O)[O-])CCN(CC(=O)[O-])CC2)c(I)c(C(=O)NCCNC(=O)CN2CCN(CC(=O)[O-])CCN(CC(=O)[O-])CCN(CC(=O)[O-])CC2)c1I.[Gd+3].[Gd+3].[Gd+3] [Example 5, 2,4,6-Triiodo-5-({10-[1,4,7-tris-(carboxymethyl)-1,4,7,10-tetraazacyclododecanyl]}acetyl, Gd-complex)methylaminoisophthalic acid-N,N-bis-(3-aza-4-oxopentane-1,5-diyl-{10-[1,4,7-tris-(carboxymethyl)-1,4,7,10-tetraazacyclododecanyl, Gd-complex]})amide] | 0.00006 | 371 mosmol/l | >12.0 g(I + Gd)/ g(I + Gd)/kg

Source: patent US7385054B2, “Trimeric, macrocyclically substituted halo-benzene derivatives” (Schering AG, priority 2004, dated 2008)
